Results as given in PubChem BioAssay AID330 (DTP/NCI, 2004).
Values joined by “and” are separate entries in the source; they are usually repeats but may differ in a detail not shown here. Equal entries are not always repeated. Inconclusive results and toxic doses are left out. How the source made its calls: active means survival T/C of 150% or more; inactive means T/C below 125% in these data.

System: P388 leukemia ip, CD2F1 mice, survival T/C
Assay: NCI In Vivo Anticancer Drug Screen. Data for tumor model P388 Leukemia (intraperitoneal) in CD2F1 (CDF1) mice
Conditions: endpoint: median survival time, higher = longer survival
Summary of the method: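 Mice carrying the transplanted tumor received test compound or vehicle. Survival was recorded in each group, and the value is the treated-group measurement divided by that of the vehicle-treated control group.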

[1] = dose: 50.0 mg/kg/injection, schedule: Q01DX005 (ip), vehicle: saline with Tween-80
[2] = dose: 60.0 mg/kg/injection, schedule: Q01DX005 (ip), vehicle: saline with Tween-80
[3] = dose: 100.0 mg/kg/injection, schedule: Q01DX005 (ip), vehicle: saline with Tween-80
[4] = dose: 120.0 mg/kg/injection, schedule: Q01DX005 (ip), vehicle: saline with Tween-80
[5] = dose: 200.0 mg/kg/injection, schedule: Q01DX005 (ip), vehicle: saline with Tween-80
[6] = dose: 240.0 mg/kg/injection, schedule: Q01DX005 (ip), vehicle: saline with Tween-80
[7] = dose: 25.0 mg/kg/injection, schedule: Q01DX009 (ip), vehicle: Klucel (hydroxypropylcellulose) (HPC)
[8] = dose: 50.0 mg/kg/injection, schedule: Q01DX009 (ip), vehicle: Klucel (hydroxypropylcellulose) (HPC)
[9] = dose: 100.0 mg/kg/injection, schedule: Q01DX009 (ip), vehicle: Klucel (hydroxypropylcellulose) (HPC)
[10] = dose: 200.0 mg/kg/injection, schedule: Q01DX009 (ip), vehicle: Klucel (hydroxypropylcellulose) (HPC)
[11] = dose: 12.5 mg/kg/injection, schedule: Q01DX009 (ip), vehicle: saline with Tween-80
[12] = dose: 25.0 mg/kg/injection, schedule: Q01DX009 (ip), vehicle: saline with Tween-80
[13] = dose: 50.0 mg/kg/injection, schedule: Q01DX009 (ip), vehicle: saline
[14] = dose: 100.0 mg/kg/injection, schedule: Q01DX009 (ip), vehicle: saline
[15] = dose: 200.0 mg/kg/injection, schedule: Q01DX009 (ip), vehicle: saline
[16] = dose: 50.0 mg/kg/injection, schedule: Q01DX005 (ip), vehicle: Klucel (hydroxypropylcellulose) (HPC)
[17] = dose: 100.0 mg/kg/injection, schedule: Q01DX005 (ip), vehicle: Klucel (hydroxypropylcellulose) (HPC)
[18] = dose: 50.0 mg/kg/injection, schedule: Q01DX009 (ip), vehicle: saline with Tween-80
[19] = dose: 100.0 mg/kg/injection, schedule: Q04DX003 (ip), vehicle: saline
[20] = dose: 200.0 mg/kg/injection, schedule: Q04DX003 (ip), vehicle: saline
[21] = dose: 100.0 mg/kg/injection, schedule: Q04DX003 (ip), vehicle: saline with Tween-80
[22] = dose: 200.0 mg/kg/injection, schedule: Q04DX003 (ip), vehicle: saline with Tween-80

Measured: T/C

CN1C(c2ccccc2)=C(C#N)C(=O)CC(c2ccccc2)N1C (stereo not given)
inactive: dose: 5.0 mg/kg/injection, schedule: Q01DX005 (ip), vehicle: saline with Tween-80 102 % of control | dose: 10.0 mg/kg/injection, schedule: Q01DX005 (ip), vehicle: saline with Tween-80 105 % of control | dose: 20.0 mg/kg/injection, schedule: Q01DX005 (ip), vehicle: saline with Tween-80 102 % of control | dose: 40.0 mg/kg/injection, schedule: Q01DX005 (ip), vehicle: saline with Tween-80 102 % of control | [1] 101 % of control | [2] 120 % of control | [3] 93 % of control | [4] 103 % of control | [5] 104 % of control | [6] 94 % of control

COC1/C=C\OC2(C)Oc3c(C)c(O)c4c(O)c(c5c(c4c3C2=O)OC[N+](C)=C5)NC(=O)/C(C)=C\C=C\C(C)C(O)C(C)C(O)C(C)C(OC(C)=O)C1C (stereo not given)
inactive: [7] 92 % of control | [8] 97 % of control | [9] 95 % of control | [10] 95 % of control

Cc1cc2c(c(=O)o1)C1=S(SC(c3ccccc3)=C1)S2 (stereo not given)
inactive: dose: 100.0 mg/kg/injection, schedule: Q04DX002 (ip), vehicle: saline with Tween-80 90 % of control | dose: 200.0 mg/kg/injection, schedule: Q04DX002 (ip), vehicle: saline with Tween-80 99 % of control | dose: 400.0 mg/kg/injection, schedule: Q04DX002 (ip), vehicle: saline with Tween-80 105 % of control

CCCCCCCCC1OC1CCCCCCCC(=O)O (stereo not given)
inactive: dose: 3.13 mg/kg/injection, schedule: Q01DX009 (ip), vehicle: saline with Tween-80 112 % of control | dose: 6.25 mg/kg/injection, schedule: Q01DX009 (ip), vehicle: saline with Tween-80 100 % of control | [11] 103 % of control | [12] 95 % of control

O=c1c(Cl)c(Cl)c(=O)c2sc3cc(Cl)ccc3[nH]c1=2
inactive: [13] 98 % of control | [14] 102 % of control | [15] 101 % of control

Cc1cccc(C2N=C3Oc4ccccc4C=C3C(=O)N2)c1 (stereo not given)
inactive: dose: 6.25 mg/kg/injection, schedule: Q01DX005 (ip), vehicle: Klucel (hydroxypropylcellulose) (HPC) 96 % of control | dose: 12.5 mg/kg/injection, schedule: Q01DX005 (ip), vehicle: Klucel (hydroxypropylcellulose) (HPC) 95 % of control | dose: 25.0 mg/kg/injection, schedule: Q01DX005 (ip), vehicle: Klucel (hydroxypropylcellulose) (HPC) 96 % of control | [16] 99 % of control | [17] 105 % of control

CCCCCOC(=O)c1ccccc1N
inactive: dose: 12.5 mg/kg/injection, schedule: Q01DX009 (ip), vehicle: Klucel (hydroxypropylcellulose) (HPC) 105 % of control | [7] 104 % of control | [8] 102 % of control and 103 % of control | [9] 91 % of control

COc1ccc2nc(Cl)c(CO)c(CO)c2c1
inactive: [16] 102 % of control | [17] 95 % of control | dose: 200.0 mg/kg/injection, schedule: Q01DX005 (ip), vehicle: Klucel (hydroxypropylcellulose) (HPC) 105 % of control

O=C(O)c1c[nH]c2cc(OCc3ccc(Cl)c(Cl)c3)ccc2c1=O
inactive: [11] 95 % of control | [12] 91 % of control | [18] 94 % of control | [13] 92 % of control

O=C(CCl)NC(Cc1ccsc1)C(=O)O (stereo not given)
inactive: [13] 93 % of control | [14] 102 % of control

C=C(C(=O)O)C(=O)O
inactive: [13] 105 % of control | dose: 50.0 mg/kg/injection, schedule: Q04DX003 (ip), vehicle: saline 115 % of control | [14] 110 % of control | [19] 105 % of control | [20] 115 % of control

CC(C)(C)C(=Nc1ccccc1)OC(c1ccccc1)(C(F)(F)F)C(F)(F)F
inactive: dose: 100.0 mg/kg/injection, schedule: Q04DX002 (ip), vehicle: Klucel (hydroxypropylcellulose) (HPC) 105 % of control | dose: 200.0 mg/kg/injection, schedule: Q04DX002 (ip), vehicle: Klucel (hydroxypropylcellulose) (HPC) 101 % of control | dose: 400.0 mg/kg/injection, schedule: Q04DX002 (ip), vehicle: Klucel (hydroxypropylcellulose) (HPC) 90 % of control

Cn1c(=O)c2c(ncn2CCCl)n(C)c1=O
inactive: dose: 12.5 mg/kg/injection, schedule: Q01DX005 (ip), vehicle: distilled water + Tween-80 100 % of control | dose: 25.0 mg/kg/injection, schedule: Q01DX005 (ip), vehicle: distilled water + Tween-80 105 % of control | dose: 50.0 mg/kg/injection, schedule: Q01DX005 (ip), vehicle: distilled water + Tween-80 105 % of control | dose: 100.0 mg/kg/injection, schedule: Q01DX005 (ip), vehicle: distilled water + Tween-80 102 % of control

C=CCCCn1nnc2ccccc21
inactive: [21] 102 % of control | [22] 94 % of control | dose: 400.0 mg/kg/injection, schedule: Q04DX003 (ip), vehicle: saline with Tween-80 86 % of control

COC(=O)CC1c2ccc3cc(OC)ccc3c2CCC1(C)C(=O)OC (stereo not given)
inactive: [1] 103 % of control | [3] 96 % of control | [5] 98 % of control

COSc1cccc(C(F)(F)F)c1
inactive: [19] 100 % of control | [20] 100 % of control | dose: 400.0 mg/kg/injection, schedule: Q04DX003 (ip), vehicle: saline 97 % of control

O=C1CCC2(O)[C@@H]3Cc4ccc(O)c5c4[C@]2(CCN3Cc2ccoc2)C1O5 (stereo not given in full)
inactive: [13] 124 % of control | dose: 66.0 mg/kg/injection, schedule: Q01DX009 (ip), vehicle: saline 107 % of control and 91 % of control | [14] 105 % of control and 121 % of control and 96 % of control | dose: 150.0 mg/kg/injection, schedule: Q01DX009 (ip), vehicle: saline 98 % of control and 116 % of control

O=c1[nH]cc(S)c(=O)[nH]1
inactive: [12] 105 % of control | [18] 100 % of control | dose: 50.0 mg/kg/injection, schedule: Q04DX003 (ip), vehicle: saline with Tween-80 100 % of control | dose: 100.0 mg/kg/injection, schedule: Q01DX009 (ip), vehicle: saline with Tween-80 110 % of control | [21] 100 % of control

CCN=C(c1ccc(NC(=O)c2ccc(C(=O)Nc3ccc(C(=NCC)N(CC)CC)cc3)c(Cl)c2)cc1)N(CC)CC
inactive: dose: 0.05 mg/kg/injection, schedule: Q01DX005 (ip), vehicle: saline 104 % of control | dose: 0.09 mg/kg/injection, schedule: Q01DX005 (ip), vehicle: saline 87 % of control | dose: 0.19 mg/kg/injection, schedule: Q01DX005 (ip), vehicle: saline 97 % of control | dose: 0.39 mg/kg/injection, schedule: Q01DX005 (ip), vehicle: saline 102 % of control and 97 % of control

CCNc1ccc2c(c1)C(=O)N(OS(C)(=O)=O)C2=O
inactive: [1] 97 % of control | [3] 92 % of control

COC(=O)/N=c1\cc(N2CC=CCC2)nc(N)n1O
inactive: [2] 94 % of control | [4] 94 % of control | [6] 91 % of control

O=C1c2ccccc2SC[C@@H]2CCCN12
inactive: dose: 60.0 mg/kg/injection, schedule: Q01DX005 (ip), vehicle: saline 101 % of control | dose: 120.0 mg/kg/injection, schedule: Q01DX005 (ip), vehicle: saline 99 % of control | dose: 240.0 mg/kg/injection, schedule: Q01DX005 (ip), vehicle: saline 99 % of control

CC1(/C=C/c2ccccc2)NC(=O)NC1=O (stereo not given)
inactive: [8] 88 % of control | [9] 98 % of control | [10] 104 % of control

N#Cc1cnn(-c2ccc([N+](=O)[O-])cc2[N+](=O)[O-])c1N
inactive: [13] 101 % of control | [14] 100 % of control | [15] 108 % of control

NC(CCl)C(=O)O (stereo not given)
inactive: dose: 50.0 mg/kg/injection, schedule: Q01DX005 (ip), vehicle: saline 100 % of control | dose: 100.0 mg/kg/injection, schedule: Q01DX005 (ip), vehicle: saline 100 % of control | dose: 200.0 mg/kg/injection, schedule: Q01DX005 (ip), vehicle: saline 100 % of control

COc1ccc(C2CCc3cc4c(cc3C2=O)OCO4)cc1OC (stereo not given)
inactive: [22] 90 % of control

CC(=O)Nc1cccc(/C(C)=N/NC(N)=O)c1
inactive: [1] 91 % of control | [3] 91 % of control | [5] 89 % of control

Cn1c(=O)c2[nH]c(C(C)(C)O)nc2n(C)c1=O
inactive: [2] 101 % of control | [4] 104 % of control | [6] 101 % of control
